Measured values taken from paper PMC9363195, “Preclinical Pharmacokinetics, Biodistribution, and Acute Toxicity Evaluation of Caerin 1.9 Peptide in Sprague Dawley Rats” (Evidence-based Complementary and Alternative Medicine : eCAM, 2022).
Where “and” joins values, the source holds several entries; their conditions need not be identical. Equal values may be shown once. Entries after “also recorded” stand apart in the source; their conditions may differ. Read-outs that look alike come from different tables or passages of the source. Peptide text beside a SMILES is read from it.

What was measured:
Assay type in all cases: in vivo, Sprague Dawley rats
[1] = Tissue distribution of single subcutaneous injection of F3 (1.0 mg/kg); settings: LC-MS/MS; for F3 in tissue samples (heart, brain, liver, kidney, lung, spleen, stomach, small intestine, testis, ovaries, subcutaneous fat, skeletal muscle): single s.c. 1.0 mg/kg, 1, 2, 4, 8, 24, 48 h, LOQ in tissues 40–80 ng/g; for level at 4 h / level at 1 h / level at 2 h: Sprague-Dawley, rat, plasma, sc, n=3, read-out: F3 concentration in plasma; for level at 4 h: 4th hr; for level at 1 h: 1 hour after administration; for level at 2 h: mean
Experimental: (§1) The concentration of F3 in rat plasma was determined by liquid chromatography-tandem mass spectrometry, using the method established by Kanglong Huacheng Co., Ltd. The analyte was assayed by liquid chromatography coupled with the tandem mass spectrometry (LC-MS/MS) method. The LC-MS/MS system consisted of a Shimadzu HPLC system (Kyoto, Japan) and an LCMS-8060 instrument (serial no. 011105500332 AE). The following were the LC conditions: column, HALO ES-C18 2.7 µ C18 160A (50 × 2.1 mm); gradient elution at 0.5 mL/min with 5% acetonitrile in water containing 0.1% formic acid or 95% acetonitrile in water containing 0.1% formic acid; and injection volume of 10 µL. A multiple reaction monitoring (MRM) method was selected for quantitative analysis. For analyte and internal standard, the optimum transitions were 519.50 > 129.15 (five charges) and 649.15 > 120.10 (four charges), 393.20 > 373.25, and 237.15 > 194.15, respectively. The instrumental parameters were set as follows: nebulizing gas flow was 3 L/min; heating gas flow was 10 L/min; interface temperature was 300°C; DL temperature was 250°C; and heat block temperature was 400°C.
Thirty-six SD rats (18 females, 18 males) were randomly selected and given a single subcutaneous injection of F3 at 1.0 mg/kg. Tissue samples were collected at 1, 2, 4, 8, 24, and 48 hours after F3 administration. At each time point, six rats (3 of each sex) were sacrificed. At least 0.5 ml of whole blood was collected before euthanasia, and 0.5–1.0 g of tissue was collected after euthanasia. The heart, brain, liver, kidney, lung, spleen, stomach, small intestine, testis, ovary, subcutaneous fat, and skeletal muscle were among the tissue types studied.
The desired serial concentrations of working solutions were achieved by diluting stock solution (1 mg/mL in DMSO) of analyte with 50% acetonitrile in water. 5 μL of working solutions (10 to 10000 ng/mL) were added to 50 μL of the blank rat plasma and tissues to achieve calibration standards or quality control (QC) samples of 1 to 1000 ng/mL in a total volume of 55 μL.
The resulting standard, QC, or study samples were added to 200 μL of methanol containing IS (50 ng/mL dexamethasone, 2 ng/mL verapamil and 2 ng/mL carbamazepine as internal standard (IS) for protein precipitation. All samples were then vortexed for 30 seconds. After centrifugation at 4°C and 4000 rpm (ca. 3740 x g) for 15 minutes, 100 µL of the supernatant was diluted with 200 µL of water for injection on LC-MS/MS.

[2] = Pharmacokinetics of repeated subcutaneous injection of F3 (10.0 mg/kg daily, 14 days); settings: for accumulation in plasma: after 14 days of repeated s.c. injection at 10.0 mg/kg; for CL/F: read-out: Cl_F_obs (clearance rate) (converted)
Experimental: The first day of F3 administration was recorded as day 1. At least 0.5 ml blood samples were obtained alternatively from 3M/3F rats at pre- and post-F3 injection time periods (0, 0.5, 1, 2, 4, 6, 8, and 24 hr).
as §1
PK parameters were estimated by a noncompartmental model with the calculation model of “Linear Trapezoidal Linear Interpolation” using WinNonlin (Phoenix TM, version 8.1). If the plasma F3 was detected, the following pharmacokinetic parameters were measured and calculated: Cmax (maximum blood concentration), Tmax (peak time), T1/2 (elimination half-life), AUC (area under plasma concentration-time curve), Vz_F_obs (apparent distribution volume), Cl_F_obs (clearance rate), and MRTInf_obs (mean residence time).

SD rats = test: Functional observation (mortality, clinical signs) in acute toxicity study; settings: for mortality: single s.c. 1.0, 10.0, 100 mg/kg or 10.0 mg/kg daily x14 d, cage observation
Experimental: The mortality, general health status, and toxic reaction symptoms of the experimental groups were documented. Before the first day of F3 administration and during the experiments, a detailed clinical observation was carried out and recorded the changes in skin, eyes and mucous membrane, respiratory system, nervous system, activity, and behaviors of the rats. The body weight was measured and recorded before the first day of administration.
Forty SD rats (20 males and 20 females) were randomly divided into 4 groups (Figure 1). All rats were given F3 once on the day of the experiment.
Twelve SD rats (6 males, 6 females) were given a daily subcutaneous injection of F3 at a dose of 10.0 mg/kg for consecutive 14 days. The first day of administration was recorded as day 1.

[3] = female SD rats, single s.c. 1.0 mg/kg
[4] = male SD rats, single s.c. 1.0 mg/kg
[5] = female SD rats, s.c. 10.0 mg/kg daily x14 d, 14th dose, plasma, LC-MS/MS
[6] = female, Sprague-Dawley, rat, plasma, sc, 10 mg/kg, female SD rats, s.c. 10.0 mg/kg daily x14 d, 1st dose, LC-MS/MS
[7] = female, Sprague-Dawley, rat, plasma, sc, 10 mg/kg, female SD rats, s.c. 10.0 mg/kg daily x14 d, 14th dose, LC-MS/MS
[8] = male, Sprague-Dawley, rat, plasma, sc, 10 mg/kg, male SD rats, s.c. 10.0 mg/kg daily x14 d, 1st dose, LC-MS/MS
[9] = male, Sprague-Dawley, rat, plasma, sc, 10 mg/kg, male SD rats, s.c. 10.0 mg/kg daily x14 d, 14th dose, LC-MS/MS

## CC[C@H](C)[C@H](NC(=O)[C@H](CO)NC(=O)CNC(=O)[C@H](CC(C)C)NC(=O)[C@@H](NC(=O)CNC(=O)[C@H](Cc1ccccc1)NC(=O)[C@H](CC(C)C)NC(=O)CN)C(C)C)C(=O)N[C@@H](C)C(=O)N[C@@H](CCCCN)C(=O)N[C@@H](Cc1c[nH]cn1)C(=O)N[C@H](C(=O)N[C@@H](CC(C)C)C(=O)N1CCC[C@H]1C(=O)N[C@@H](Cc1c[nH]cn1)C(=O)N[C@H](C(=O)N[C@H](C(=O)N1CCC[C@H]1C(=O)N[C@H](C(=O)N[C@H](C(=O)N[C@@H](C)C(=O)N[C@@H](CCC(=O)O)C(=O)N[C@@H](CCCCN)C(=O)N[C@@H](CC(C)C)C(N)=O)[C@@H](C)CC)C(C)C)C(C)C)C(C)C)C(C)C [F3, Caerin 1.9] (H-GLFGVLGSIAKHVLPHVVPVIAEKL-NH2)
[1]; SD rats, 1 mg/kg
  F3 in tissue samples (heart, brain, liver, kidney, lung, spleen, stomach, small intestine, testis, ovaries, subcutaneous fat, skeletal muscle): No detectable F3
[1]; SD rats, listed as Caerin 1.9, 1 mg/kg
  F3 in tissue samples (heart, brain, liver, kidney, lung, spleen, stomach, small intestine, testis, ovaries, subcutaneous fat, skeletal muscle): < 40 ng/g
[1]; SD rats, single s.c. 1.0 mg/kg, time points other than 1, 2, 4 h (8, 24, 48 h)
  F3 in plasma samples collected at other time points: No detectable F3
[1]; [3]
  level at 4 h: 19.4 ± 5.96 ng/mL
  level at 1 h: 174 ± 43 ng/mL
  level at 2 h: 49.7 ± 1.71 ng/mL
[1]; [4]
  level at 4 h: 20 ± 9.73 ng/mL
  level at 1 h: 165 ± 46.5 ng/mL
  level at 2 h: 104 ± 25.5 ng/mL
[2]; SD rats, 10 mg/kg
  accumulation in plasma: no F3 accumulation
[2]; SD rats, listed as Caerin 1.9, 10 mg/kg
  accumulation in plasma: no accumulation
[2]; SD rats, s.c., over single 1.0 mg/kg and repeated 10.0 mg/kg groups
  Tmax: between half an hour and one hour
[2]; female SD rats, s.c. 10.0 mg/kg daily x14 d, 1st dose, plasma, LC-MS/MS
  AUC_%Extrap_obs: 1.48%
[2]; female SD rats, s.c. 10.0 mg/kg daily x14 d, 1st dose, plasma, LC-MS/MS, 10 mg/kg
  T max: 1 h and 1.00 h
[2]; [5]
  AUC_%Extrap_obs: 0.658%
  T max: 1.00 h
[2]; female, Sprague Dawley, rat, plasma, sc, 10 mg/kg, female SD rats, s.c. 10.0 mg/kg daily x14 d, 14th dose, LC-MS/MS
  AUC(0-inf): 1110 ng·h/mL
[2]; [6]
  AUC(0-inf): 751 ng·h/mL
  AUC(0-t): 740 ng·h/mL
  Cmax: 256 ng/mL
  half-life: 1.33 h
[2]; female, Sprague-Dawley, rat, plasma, sc, 10 mg/kg, female SD rats, s.c. 10.0 mg/kg daily x14 d, 1st dose, plasma, LC-MS/MS
  CL/F: 222 mL/min/kg
[2]; female, Sprague-Dawley, rat, plasma, sc, 10 mg/kg, female SD rats, s.c. 10.0 mg/kg daily x14 d, 1st dose, plasma, LC-MS/MS, read-out: MRTInf_obs (mean residence time)
  MRT: 2.96 h
[2]; [7]
  AUC(0-t): 1100 ng·h/mL
  Cmax: 496 ng/mL
  half-life: 1.03 h
[2]; female, Sprague-Dawley, rat, plasma, sc, 10 mg/kg, female SD rats, s.c. 10.0 mg/kg daily x14 d, 14th dose, plasma, LC-MS/MS
  CL/F: 150 mL/min/kg
[2]; female, Sprague-Dawley, rat, plasma, sc, 10 mg/kg, female SD rats, s.c. 10.0 mg/kg daily x14 d, 14th dose, plasma, LC-MS/MS, read-out: MRTInf_obs (mean residence time)
  MRT at 14 days: 1.91 h
[2]; male SD rats, s.c. 10.0 mg/kg daily x14 d, 1st dose, plasma, LC-MS/MS
  AUC_%Extrap_obs: 0.807%
[2]; male SD rats, s.c. 10.0 mg/kg daily x14 d, 1st dose, plasma, LC-MS/MS, 10 mg/kg
  T max: 1 h
[2]; male SD rats, s.c. 10.0 mg/kg daily x14 d, 14th dose, plasma, LC-MS/MS
  AUC_%Extrap_obs: 0.365%
[2]; [8]
  AUC(0-inf): 1910 ng·h/mL
  AUC(0-t): 1890 ng·h/mL
  Cmax: 591 ng/mL
  half-life: 4.58 h
[2]; male, Sprague-Dawley, rat, plasma, sc, 10 mg/kg, male SD rats, s.c. 10.0 mg/kg daily x14 d, 1st dose, plasma, LC-MS/MS
  CL/F: 87.5 mL/min/kg
[2]; male, Sprague-Dawley, rat, plasma, sc, 10 mg/kg, male SD rats, s.c. 10.0 mg/kg daily x14 d, 1st dose, plasma, LC-MS/MS, read-out: T max
  Tmax: 1 h
[2]; [9]
  AUC(0-inf): 1270 ng·h/mL
  AUC(0-t): 1270 ng·h/mL
  Cmax: 527 ng/mL
  half-life: 0.894 h
[2]; male, Sprague-Dawley, rat, plasma, sc, 10 mg/kg, male SD rats, s.c. 10.0 mg/kg daily x14 d, 14th dose, plasma, LC-MS/MS
  CL/F: 131 mL/min/kg
[2]; male, Sprague-Dawley, rat, plasma, sc, 10 mg/kg, male SD rats, s.c. 10.0 mg/kg daily x14 d, 14th dose, plasma, LC-MS/MS, read-out: MRTInf_obs (mean residence time)
  MRT at 14 days: 2.06 h
[2]; male, Sprague-Dawley, rat, plasma, sc, 10 mg/kg, male SD rats, s.c. 10.0 mg/kg daily x14 d, 14th dose, plasma, LC-MS/MS, read-out: T max
  Tmax: 0.5 h
SD rats; s.c. 10.0 mg/kg daily x14 d, 6 M/6 F
  clinical observation: scabs at the injection site: scabs were discovered at the injection site in one female rat, three female rats, and two male rats on the 8th, 12th, and 15th days, respectively
SD rats; single s.c. 1.0 mg/kg or 10.0 mg/kg
  clinical observation (fur, eyes, mucosa, respiratory, circulatory, nervous system, behaviors): no abnormalities
SD rats; single s.c. 100.0 mg/kg, 5 M/5 F
  clinical observation: dorsal scabs: one male and two female rats on day 8 and two female rats on day 15 developed dorsal scabs
SD rats
  mortality: no rats receiving F3 were found dead or dying; also recorded: No dead or dying rats were observed
SD rats; listed as Caerin 1.9
  mortality: does not cause mortality or organ malfunction
